# “And” between values parts separate entries of the source, which are not always exact repeats. Identical values can stand only once. Inconclusive results and toxic doses are left out.
# Test system: BDF1 mice, B16 melanoma ip, median survival T/C
# Test: NCI In Vivo Anticancer Drug Screen. Data for tumor model B16 Melanoma (intraperitoneal) in B6D2F1 (BDF1) mice
# Details: endpoint: median survival time, higher = longer survival
# In short: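 Read-out: survival or tumor size, given as treated/control ratio. Controls received vehicle only; animals bore transplantable tumors.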
# [1] = dose: 50.0 mg/kg/injection, schedule: Q01DX009 (ip), vehicle: Klucel (hydroxypropylcellulose) (HPC)
# [2] = dose: 100.0 mg/kg/injection, schedule: Q01DX009 (ip), vehicle: Klucel (hydroxypropylcellulose) (HPC)
# [3] = dose: 50.0 mg/kg/injection, schedule: Q01DX009 (ip), vehicle: saline
# [4] = dose: 100.0 mg/kg/injection, schedule: Q01DX009 (ip), vehicle: saline
# [5] = dose: 200.0 mg/kg/injection, schedule: Q01DX009 (ip), vehicle: saline
# [6] = dose: 25.0 mg/kg/injection, schedule: Q01DX009 (ip), vehicle: saline
structure (smiles),measurement,setting,value
O=C(O)C(Cc1cc(I)c(O)c(I)c1)c1ccccc1 (stereo not drawn),T/C,[1],100 % of control
same,T/C,[2],109 % of control
same,T/C,"dose: 200.0 mg/kg/injection, schedule: Q01DX009 (ip), vehicle: Klucel (hydroxypropylcellulose) (HPC)",100 % of control
CC1=CC(C)(C)Nc2ccc(CSc3ccccc3)cc21,T/C,"dose: 12.5 mg/kg/injection, schedule: Q01DX009 (ip), vehicle: saline + Tween-80 + alcohol",112 % of control
same,T/C,"dose: 25.0 mg/kg/injection, schedule: Q01DX009 (ip), vehicle: saline + Tween-80 + alcohol",117 % of control
same,T/C,"dose: 50.0 mg/kg/injection, schedule: Q01DX009 (ip), vehicle: saline + Tween-80 + alcohol",111 % of control
same,T/C,"dose: 100.0 mg/kg/injection, schedule: Q01DX009 (ip), vehicle: saline + Tween-80 + alcohol",96 % of control
CCOc1cc[n+]([O-])cc1,T/C,[3],103 % of control
same,T/C,[4],104 % of control
same,T/C,[5],102 % of control
O=S(=O)(NN=C(c1ccccc1)c1ccccc1)c1ccccc1,T/C,"dose: 25.0 mg/kg/injection, schedule: Q01DX009 (ip), vehicle: Klucel (hydroxypropylcellulose) (HPC)",86 % of control
same,T/C,[1],91 % of control
N#CC(c1ccccc1)N1CCCCC1 (stereo not drawn),T/C,[1],93 % of control
same,T/C,[2],90 % of control
CN(C)CCCNc1c2ccccc2nc2cccc([N+](=O)[O-])c12,T/C,"dose: 2.0 micrograms/kg/injection, schedule: Q01DX009 (ip), vehicle: saline",112 % of control
same,T/C,"dose: 4.0 micrograms/kg/injection, schedule: Q01DX009 (ip), vehicle: saline",116 % of control
same,T/C,"dose: 8.0 micrograms/kg/injection, schedule: Q01DX009 (ip), vehicle: saline",107 % of control
same,T/C,"dose: 16.0 micrograms/kg/injection, schedule: Q01DX009 (ip), vehicle: saline",109 % of control
same,T/C,"dose: 32.0 micrograms/kg/injection, schedule: Q01DX009 (ip), vehicle: saline",121 % of control
same,T/C,"dose: 63.0 micrograms/kg/injection, schedule: Q01DX009 (ip), vehicle: saline",103 % of control
same,T/C,"dose: 125.0 micrograms/kg/injection, schedule: Q01DX009 (ip), vehicle: saline",90 % of control
NCCS(=O)(=O)O,T/C,[4],105 % of control
same,T/C,[5],107 % of control
same,T/C,"dose: 400.0 mg/kg/injection, schedule: Q01DX009 (ip), vehicle: saline",110 % of control
same,T/C,"dose: 800.0 mg/kg/injection, schedule: Q01DX009 (ip), vehicle: saline",102 % of control
COc1cc2c(cc1OC)C(CN)C2 (stereo not drawn),T/C,[1],94 % of control
same,T/C,[2],97 % of control
CCC[CH2][Pb]([CH2]CCC)([CH2]CCC)[O]C(=O)CCl,T/C,"dose: 1.56 mg/kg/injection, schedule: Q01DX009 (ip), vehicle: Klucel (hydroxypropylcellulose) (HPC)",90 % of control
C[n+]1ccc(Nc2ccc(NC(=O)c3ccc(Nc4cc[n+](C)c5ccc(N)cc45)cc3)cc2)cc1,T/C,"dose: 0.5 mg/kg/injection, schedule: Q01DX009 (ip), vehicle: Klucel (hydroxypropylcellulose) (HPC)",105 % of control
same,T/C,"dose: 1.0 mg/kg/injection, schedule: Q01DX009 (ip), vehicle: Klucel (hydroxypropylcellulose) (HPC)",98 % of control and 101 % of control
same,T/C,"dose: 1.0 mg/kg/injection, schedule: Q02DX009 (ip), vehicle: Klucel (hydroxypropylcellulose) (HPC)",100 % of control and 116 % of control
same,T/C,"dose: 2.0 mg/kg/injection, schedule: Q01DX009 (ip), vehicle: Klucel (hydroxypropylcellulose) (HPC)",105 % of control and 108 % of control and 111 % of control
same,T/C,"dose: 2.0 mg/kg/injection, schedule: Q02DX009 (ip), vehicle: Klucel (hydroxypropylcellulose) (HPC)",106 % of control and 112 % of control
same,T/C,"dose: 4.0 mg/kg/injection, schedule: Q01DX009 (ip), vehicle: Klucel (hydroxypropylcellulose) (HPC)",103 % of control and 111 % of control and 120 % of control
same,T/C,"dose: 4.0 mg/kg/injection, schedule: Q02DX009 (ip), vehicle: Klucel (hydroxypropylcellulose) (HPC)",109 % of control and 112 % of control
same,T/C,"dose: 8.0 mg/kg/injection, schedule: Q01DX009 (ip), vehicle: Klucel (hydroxypropylcellulose) (HPC)",109 % of control and 123 % of control and 124 % of control
same,T/C,"dose: 8.0 mg/kg/injection, schedule: Q02DX009 (ip), vehicle: Klucel (hydroxypropylcellulose) (HPC)",107 % of control and 118 % of control
same,T/C,"dose: 16.0 mg/kg/injection, schedule: Q02DX009 (ip), vehicle: Klucel (hydroxypropylcellulose) (HPC)",98 % of control and 110 % of control
COc1cccc2c1C(=O)c1c(O)c3c(c(O)c1C2=O)CC(O)(C(=O)CO)CC3OC1CC(N)C(O)C(C)O1 (stereo not drawn),T/C,"dose: 1.12 mg/kg/injection, schedule: Q01DX001 (ip), vehicle: water",178 % of control
same,T/C,"dose: 2.25 mg/kg/injection, schedule: Q01DX001 (ip), vehicle: water",156 % of control and 212 % of control and 228 % of control
same,T/C,"dose: 2.9 mg/kg/injection, schedule: Q01DX009 (ip), vehicle: saline",195 % of control
same,T/C,"dose: 4.2 mg/kg/injection, schedule: Q01DX001 (ip), vehicle: water",178 % of control
same,T/C,"dose: 4.32 mg/kg/injection, schedule: Q01DX004 (ip), vehicle: other",152 % of control
same,T/C,"dose: 4.5 mg/kg/injection, schedule: Q01DX001 (ip), vehicle: water",161 % of control and 194 % of control and 273 % of control
same,T/C,"dose: 6.9 mg/kg/injection, schedule: Q01DX001 (ip), vehicle: water",183 % of control
same,T/C,"dose: 7.2 mg/kg/injection, schedule: Q01DX004 (ip), vehicle: other",152 % of control
same,T/C,"dose: 9.0 mg/kg/injection, schedule: Q01DX001 (ip), vehicle: water",203 % of control and 273 % of control and 277 % of control
same,T/C,"dose: 9.4 mg/kg/injection, schedule: Q01DX001 (ip), vehicle: water",189 % of control
same,T/C,"dose: 10.0 mg/kg/injection, schedule: Q01DX009 (ip), vehicle: saline",222 % of control and 298 % of control
same,T/C,"dose: 11.4 mg/kg/injection, schedule: Q04DX003 (ip), vehicle: saline",182 % of control
same,T/C,"dose: 11.7 mg/kg/injection, schedule: Q01DX009 (ip), vehicle: saline",267 % of control
same,T/C,"dose: 12.0 mg/kg/injection, schedule: Q01DX004 (ip), vehicle: other",159 % of control
same,T/C,"dose: 15.0 mg/kg/injection, schedule: Q01DX001 (ip), vehicle: water",108 % of control
same,T/C,"dose: 18.0 mg/kg/injection, schedule: Q01DX001 (ip), vehicle: water",203 % of control and 250 % of control and 273 % of control
same,T/C,"dose: 18.75 mg/kg/injection, schedule: Q01DX001 (ip), vehicle: water",235 % of control
same,T/C,"dose: 18.8 mg/kg/injection, schedule: Q01DX001 (ip), vehicle: water",200 % of control
same,T/C,"dose: 19.2 mg/kg/injection, schedule: Q01DX001 (ip), vehicle: water",209 % of control
same,T/C,"dose: 20.0 mg/kg/injection, schedule: Q01DX009 (ip), vehicle: saline",289 % of control and 314 % of control
same,T/C,"dose: 22.8 mg/kg/injection, schedule: Q04DX003 (ip), vehicle: saline",236 % of control
same,T/C,"dose: 23.4 mg/kg/injection, schedule: Q01DX009 (ip), vehicle: saline",165 % of control and 200 % of control
same,T/C,"dose: 30.0 mg/kg/injection, schedule: Q01DX001 (ip), vehicle: water",116 % of control
same,T/C,"dose: 32.0 mg/kg/injection, schedule: Q01DX001 (ip), vehicle: other",164 % of control
same,T/C,"dose: 36.0 mg/kg/injection, schedule: Q01DX001 (ip), vehicle: water",203 % of control
same,T/C,"dose: 37.5 mg/kg/injection, schedule: Q01DX001 (ip), vehicle: water",226 % of control and 280 % of control
same,T/C,"dose: 40.0 mg/kg/injection, schedule: Q01DX009 (ip), vehicle: saline",287 % of control
same,T/C,"dose: 45.6 mg/kg/injection, schedule: Q04DX003 (ip), vehicle: saline",150 % of control and 276 % of control
same,T/C,"dose: 46.8 mg/kg/injection, schedule: Q01DX009 (ip), vehicle: saline",172 % of control
same,T/C,"dose: 60.0 mg/kg/injection, schedule: Q01DX001 (ip), vehicle: water",114 % of control
same,T/C,"dose: 72.0 mg/kg/injection, schedule: Q01DX001 (ip), vehicle: water",277 % of control
same,T/C,"dose: 75.0 mg/kg/injection, schedule: Q01DX001 (ip), vehicle: water",314 % of control and 334 % of control
same,T/C,"dose: 91.2 mg/kg/injection, schedule: Q04DX003 (ip), vehicle: saline",157 % of control and 276 % of control
same,T/C,"dose: 150.0 mg/kg/injection, schedule: Q01DX001 (ip), vehicle: water",185 % of control and 315 % of control
C/C(=N\[N+](C)(C)C)c1ccc(Br)cc1,T/C,[6],88 % of control
same,T/C,[3],102 % of control
same,T/C,[4],94 % of control
Nc1ccc2ncccc2c1,T/C,"dose: 12.5 mg/kg/injection, schedule: Q01DX009 (ip), vehicle: saline",111 % of control
same,T/C,[6],105 % of control
same,T/C,[3],109 % of control
O=S(=O)(/N=C1C=C/C(=N/S(=O)(=O)c2ccccc2)C2C3C=CC(C3)C/12)c1ccccc1 (stereo not drawn),T/C,"dose: 100.0 mg/kg/injection, schedule: Q04DX003 (ip), vehicle: Klucel (hydroxypropylcellulose) (HPC)",92 % of control
same,T/C,"dose: 200.0 mg/kg/injection, schedule: Q04DX003 (ip), vehicle: Klucel (hydroxypropylcellulose) (HPC)",86 % of control
C=CCc1cccc(OC)c1OCCN(CC)CC,T/C,"dose: 5.0 mg/kg/injection, schedule: Q01DX009 (ip), vehicle: saline with Tween-80",88 % of control
same,T/C,"dose: 10.0 mg/kg/injection, schedule: Q01DX009 (ip), vehicle: saline with Tween-80",100 % of control
same,T/C,"dose: 20.0 mg/kg/injection, schedule: Q01DX009 (ip), vehicle: saline with Tween-80",100 % of control

# Source: PubChem BioAssay AID192 (DTP/NCI, 2004)
